Test results from PubChem BioAssay (NCI).
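Step 1: Grow cells in 96-well plates. Step 2: Expose to compound for 48 hours at 5 concentrations. Step 3: Interpolate endpoints linearly; if unreached, use highest concentration. The concentration for 50% growth inhibition is given as GI50. Definition used: TGI = concentration required for complete inhibition of growth.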

What was measured:
Test in all cases: growth of human tumour cells (NCI), 48 h
HT29 colon = tested on: HT29 colon
HCT-15 colon = tested on: HCT-15 colon
NCI-H460 lung = tested on: NCI-H460 lung
NCI-H226 lung = tested on: NCI-H226 lung
SK-MEL-28 melanoma = tested on: SK-MEL-28 melanoma
IGROV1 ovarian = tested on: IGROV1 ovarian
786-0 renal = tested on: 786-0 renal
SK-MEL-2 melanoma = tested on: SK-MEL-2 melanoma
MDA-MB-435 = tested on: MDA-MB-435
DU-145 prostate = tested on: DU-145 prostate

SMILES | TGI (HT29 colon) [µM] | TGI (HCT-15 colon) [µM] | TGI (NCI-H460 lung) [µM] | TGI (NCI-H226 lung) [µM] | TGI (SK-MEL-28 melanoma) [µM] | TGI (IGROV1 ovarian) [µM] | TGI (786-0 renal) [µM] | TGI (SK-MEL-2 melanoma) [µM] | GI50 (HT29 colon) [µM] | GI50 (HCT-15 colon) [µM] | GI50 (SK-MEL-2 melanoma) [µM] | GI50 (NCI-H460 lung) [µM] | GI50 (NCI-H226 lung) [µM] | GI50 (SK-MEL-28 melanoma) [µM] | GI50 (IGROV1 ovarian) [µM] | GI50 (786-0 renal) [µM] | GI50 (MDA-MB-435) [µM] | TGI (MDA-MB-435) [µM] | GI50 (DU-145 prostate) [µM] | TGI (DU-145 prostate) [µM]
COC(=O)/C(C#N)=C1\N=NNN1CCCN1CCOCC1 | > 100 | > 100 | > 100 | > 100 | > 100 | > 100 | > 100 | – | – | – | – | – | – | – | – | – | – | – | – | –
COc1cc2ccn3c4cc(OC)c(OC)cc4cc3c2cc1OC | > 100 | – | > 100 | > 100 | > 100 | – | > 100 | > 100 | – | – | – | – | – | – | – | – | – | – | – | –
S=C(Nc1ccccc1)Nc1[nH]c(=S)sc1-c1nc2ccccc2[nH]1 | > 100 | > 100 | – | 29.4 | > 100 | > 100 | > 100 | > 100 | – | – | – | – | – | – | – | – | – | – | – | –
CC1CCC(O)C(C(O)CC2CC(=O)N(C)C(=O)C2)C1 (centres undefined) | > 100 | – | > 100 | > 100 | > 100 | > 100 | > 100 | – | – | – | – | – | – | – | – | – | – | – | – | –
CC1OC(=O)N(CCCC=C2SCCCS2)C1=O (centres undefined) | > 100 | > 100 | > 100 | > 100 | > 100 | > 100 | > 100 | > 100 | – | – | – | – | – | – | – | – | – | – | – | –
CC(C)OP(=O)(CP(=O)(OC(C)C)OC(C)C)OC(C)C.[CH3][Sn]([Br])([Br])[Br] | > 100 | > 100 | > 100 | > 100 | > 100 | > 100 | > 100 | > 100 | > 100 | > 100 | > 100 | > 100 | > 100 | > 100 | > 100 | > 100 | – | – | – | –
COc1cc2c3c(c1OC)-c1ccccc1C(C(OC(C)=O)c1ccccc1)C3N(C)CC2 (centres undefined) | > 100 | > 100 | > 100 | > 100 | > 100 | > 100 | > 100 | 83.7 | – | – | – | – | – | – | – | – | – | – | – | –
O=C1c2cccnc2C(=O)c2c1c(C(=O)OCCCN1CCOCC1)c1ccccn21 | 2.18 | – | – | – | 4.57 | 3.2 | 0.0403 | 0.0569 | 0.354 | – | 0.0205 | – | – | 0.0658 | 0.0163 | 0.0124 | < 0.0118 | 2.06 | < 0.01 | 1.29
O=C1c2ccccc2-c2cc3ccccc3c(=O)n21 | > 100 | > 100 | > 100 | – | > 100 | > 100 | > 100 | > 100 | – | – | – | – | – | – | – | – | – | > 100 | – | > 100
O=C(O)c1cc(Cl)cc(NC(=O)C(Cl)Cl)c1Cl | > 100 | > 100 | > 100 | > 100 | > 100 | > 100 | > 100 | > 100 | – | – | – | – | – | – | – | – | – | – | – | –
Cc1nnc([S-])s1.[Au+].c1ccc([PH+](c2ccccc2)c2ccccc2)cc1 | – | – | – | – | 2.99 | 2.97 | 3.32 | 3.11 | – | – | 1.64 | – | – | 1.57 | 1.53 | 1.78 | 1.7 | 3.18 | 1.68 | 3.23
COC(=O)c1cc(Nc2ccc(O)c3c2C(=O)c2c([N+](=O)[O-])ccc(O)c2C3=O)cc(C(=O)OC)c1 | > 100 | > 100 | 18.9 | > 100 | – | > 100 | > 100 | > 100 | 8.21 | 2.77 | 4.05 | 3.32 | 20.1 | – | 26.9 | 30.6 | – | – | 1.75 | 3.51
O=c1oc(-c2ccc(O)c(O)c2)cc2cc(O)cc(O)c12 | > 100 | > 100 | > 100 | – | > 100 | 43.2 | > 100 | > 100 | 71.5 | 57.1 | 74.4 | 31 | – | 39.5 | 2.19 | 39.6 | 33 | > 100 | 32.4 | > 100
C/C(=N\NS(=O)(=O)c1ccc(C)cc1)c1ccc[n+]([O-])n1 | > 100 | > 100 | > 100 | – | > 100 | > 100 | > 100 | – | – | – | – | – | – | – | – | – | – | – | – | –
O=C(/C=C/N1CCN(c2cccc(C(F)(F)F)c2)CC1)c1ccc(Cl)cc1Cl | > 100 | 53.9 | 97.3 | – | 43.9 | 58.2 | 39.8 | > 100 | 38.6 | 26.8 | 37.5 | 30.9 | – | 21.1 | 30 | 20.8 | 25.6 | 44.6 | 35.1 | > 100
COc1cc(C(c2cc3c(cc2O)OCO3)N2CCCC2)cc(OC)c1OC (centres undefined) | 28 | 29.2 | – | 33.8 | 41.4 | 27.8 | 28.8 | 40 | – | – | – | – | – | – | – | – | – | 32.5 | – | 36
CC1=C(C#N)C(N)=C2C(C)=C(C#N)C(N)=C12 | > 100 | > 100 | > 100 | > 100 | – | > 100 | > 100 | – | – | – | – | – | – | – | – | – | – | – | – | –
Cc1nnc2n1N=C(CC(=O)c1ccc(O)cc1O)CN2N | > 100 | 29.7 | > 100 | – | > 100 | > 100 | > 100 | > 100 | – | – | – | – | – | – | – | – | – | – | – | –
Cc1cc(N(CCC#N)S(=O)(=O)c2ccccc2)ccc1C=O | > 100 | > 100 | > 100 | > 100 | > 100 | > 100 | > 100 | > 100 | – | – | – | – | – | – | – | – | – | – | – | –
O=C1[C@H]2C(c3ccccc3)=NN(C(=O)c3ccccc3)[C@H]2C(=O)N1c1ccccc1 | > 100 | > 100 | > 100 | > 100 | > 100 | > 100 | > 100 | > 100 | – | – | – | – | – | – | – | – | – | – | – | –
CCOC(=O)/C=C1\Nc2ccccc2C(c2ccccc2)=NC1OC(C)=O (centres undefined) | > 100 | > 100 | > 100 | – | > 100 | > 100 | > 100 | > 100 | – | – | – | – | – | – | – | – | – | – | – | –
